This is an account of results in US11649477B2, “Assays and reagents for antimicrobial susceptibility testing” (SELUX DIAGNOSTICS, INC., priority 2018, dated 2023).

In assay [1] the test system is E. coli. To be noted: E. coli strain tested; values as generally found; cited from earlier work.
Assay [2] relates to K. pneumoniae. Briefly: Anionic ratio (growth in colistin vs MHB, Alamar Blue fluorescence). In kind it is cell-based. The note with it: 4 μg/ml colistin, Ex560/Em590. As for the experimental part: (§1) P. mirabilis and K. pneumoniae were prepared by diluting colonies into saline to reach a McFarland value of 0.5, which was verified using a spectrophotometer, diluted, and inoculated into 96-well plates containing cation-adjusted Mueller Hinton broth and doubling dilutions of gentamycin (GEN) and ciproflaxin (CIP). Plates were incubated at 35° C., shaking at 150 rpm for 3 hours, after which 10 μl of Alamar Blue were added to each well and plates were incubated for 1 additional hour. After this incubation, Alamar Blue signal was read as the fluorescent signal Ex560/Em590. […] After the final wash, time-resolved fluorescence (TRF) for all wells was read at 330/615 nm.
(§2) The anionic ratios were calculated from the background subtracted fluorescent signal (Ex560/Em590) of bacteria grown in 4 μg/ml colistin divided by the background subtracted fluorescent signal of bacteria grown in MHB. […]
Background: Alamar Blue is a resazurin reagent that responds to reducing activity.

Assay [3] concerns P. mirabilis. Described as above. In kind it is cell-based. The note with it: 4 μg/ml colistin, Ex560/Em590. As to the method: as §1, §2
Assay [4] relates to S. aureus. Put plainly: Rapid AST, vancomycin dilution series read by Eu-cryptate-diamine surface binding (TRF). Format: cell-based. To be noted: Staphylococcus aureus, CTAB pretreatment, CTAB removed before probe, TRF 330/615 nm, read-out: minimum inhibitory concentration (MIC). As for the experimental part: S. aureus were prepared by diluting colonies into saline to reach a McFarland value of 0.5, which was verified using a spectrophotometer, diluted, and inoculated into 96-well plates containing cation-adjusted Mueller Hinton broth and doubling dilutions of vancomycin. Plates were incubated at 35° C., shaking at 150 rpm for 3 hours, after which 10 μl of Alamar Blue were added to each well and plates were incubated for 1 additional hour. After this incubation, 100 μl of a 0.03% Cetyltrimethylammonium bromide with 0.1M EDTA solution was added to each well. The plates were placed on a shaker at 450 RPM for 10 minutes, followed by centrifugation at 2500×g for 2.5 minutes. The wells were aspirated and 100 μL PBS with 0.05% Tween-20 (PBST) or 100 μl of a 0.03% Cetyltrimethylammonium bromide with 0.1M EDTA solution was added back into the wells. Ten microliters of Eu-cryptate-diamine (5 ng/well) was added to each well and the plates were shaken for 10 minutes. The plates were then centrifuged, the wells aspirated, and 200 μL 1×PBST were added to each well. These steps were repeated twice. After the final wash, time-resolved fluorescence (TRF) for all wells was read at 330/615 nm.

In brackets after ≈: the same amount, converted by molar mass.

For the compound `CC[C@H]1OC(=O)[C@H](C)[C@@H](O[C@H]2C[C@@](C)(OC)[C@@H](O)[C@H](C)O2)[C@H](C)[C@@H](O[C@@H]2O[C@H](C)C[C@H](N(C)C)[C@H]2O)[C@](C)(O)C[C@@H](C)CN(C)[C@H](C)[C@@H](O)[C@]1(C)O` [ATM, azithromycin], the MIC values result in assay [1] is given as “less than or equal to 0.25 μg/ml”. With colistin, the “anionic ratio (background subtracted fluorescent signal in colistin divided by signal in MHB)” value is on record as −0.08 in assay [2] and 0.96 in assay [3]. Take `CN[C@H](CC(C)C)C(=O)N[C@H]1C(=O)N[C@@H](CC(N)=O)C(=O)N[C@H]2C(=O)N[C@H]3C(=O)N[C@H](C(=O)N[C@H](C(=O)O)c4cc(O)cc(O)c4-c4cc3ccc4O)[C@H](O)c3ccc(c(Cl)c3)Oc3cc2cc(c3O[C@@H]2O[C@H](CO)[C@@H](O)[C@H](O)[C@H]2O[C@H]2C[C@](C)(N)[C@H](O)[C@H](C)O2)Oc2ccc(cc2Cl)[C@H]1O` [VAN, vancomycin]: in assay [4], the MIC came out at 2 µg/mL (≈ 1.38 µM).
